Where “and” joins values, the source holds several entries; their conditions need not be identical. Equal entries are not always repeated. Where two headings read alike, the source gives them in different places.
Legend:
[1] = target: human recombinant GCL (Homo sapiens (Human), UniProt P48506); test: GCL enzyme profiling assay (ADP-Glo luminescence); assay type: biochemical
Method: The GCL enzyme assay was run in 50 mM HEPES, pH 7.5, containing 150 mM NaCl, 30 mM MgCl2, 0.5 mM EDTA, 1 mM DTT, 0.1 mg/mL BSA, and 0.02% or in the present case 0.2% F-127 in a total assay volume of 10 μL or 10 mL. Compound in pure DMSO was stamped in assay plates (Greiner black 384-well) or appropriate containers using a D300e digital dispenser (TECAN) and the final DMSO concentration was normalized to 1%. A 5 mL, or in the present case, 5 μL mixture of human recombinant GCL (final concentration: 5 nM) and ATP (final concentration: 0.6 mM) was added and the solution was incubated at room temperature (22° C.) for 1 h. The GCL enzyme reaction was initiated by addition of a 5 μL mixture of mono g-glutamate or in the present example, monosodium glutamate (final concentration: 1 mM) and a-aminobutyrate or α-aminobutyrate (final concentration: 1.2 mM). The reaction was stopped after 1 h or in the present case, 2 h by addition of 5 mL, or in the present case, 5 μL ADP GLO Reagent (Promega). The resulting solution was incubated for 2 h at room temperature. This was then followed by addition of 5 mL, or in the present case, 5 μL ADP GLO Detection. After incubation at room temperature for 30 min, the plates were read on a plate reader (PheraStar) using a luminescence protocol to quantify the GCL enzyme activity from each reaction solution. The data was analyzed using a four-parameter logistic equation to calculate IC50.

[2] = system: RKN cells; test: RKN cell profiling assay (cell viability, CellTiter-Glo); assay type: cell-based
Summary of the method: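 Cells seeded at 1,000/well in F-12 with 10% FBS, left to adhere 24 h, then compound-treated for 96 h at 0.5% final DMSO. Viability by CellTiter-Glo luminescence; EC50 from four-parameter logistic fit. Ferroptosis rescue runs included 1.5 μM ferrostatin-1 added at seeding.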

[3] = human recombinant GCL 5 nM, 1 h preincubation with ATP, read-out: GCL IC50
[4] = 96 h, 96 h exposure, read-out: Cell Killing EC50
[5] = human recombinant GCL, ADP-Glo, read-out: GCL IC50
[6] = cell viability, read-out: Cell Killing EC50

Sequence of human recombinant GCL (P48506 whole entry): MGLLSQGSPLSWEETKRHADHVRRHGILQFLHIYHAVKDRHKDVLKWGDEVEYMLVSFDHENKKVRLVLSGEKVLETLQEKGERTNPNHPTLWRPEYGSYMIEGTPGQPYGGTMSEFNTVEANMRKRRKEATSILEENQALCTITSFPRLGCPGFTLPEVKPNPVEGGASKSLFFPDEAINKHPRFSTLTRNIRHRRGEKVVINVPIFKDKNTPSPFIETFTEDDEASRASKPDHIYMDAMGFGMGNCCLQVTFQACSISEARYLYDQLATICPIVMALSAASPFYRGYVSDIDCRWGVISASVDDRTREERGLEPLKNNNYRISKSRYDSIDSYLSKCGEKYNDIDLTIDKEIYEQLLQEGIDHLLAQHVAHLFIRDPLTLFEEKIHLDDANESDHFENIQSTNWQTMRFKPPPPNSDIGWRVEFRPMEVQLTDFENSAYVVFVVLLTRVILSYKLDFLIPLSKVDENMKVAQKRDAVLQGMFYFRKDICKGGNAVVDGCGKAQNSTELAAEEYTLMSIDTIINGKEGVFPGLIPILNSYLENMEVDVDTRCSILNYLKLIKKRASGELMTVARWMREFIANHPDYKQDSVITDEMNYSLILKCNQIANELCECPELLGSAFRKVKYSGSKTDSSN

IC50 [1, 3]	Compound	EC50 [2, 4] [mM]	EC50 [2, 6] [mM]	also measured
> 2 mM	CC(C)(C)CC[S@@](=N)(=O)CC[C@H](N)C(=O)Nc1cccnc1 (single isomer, unassigned) [Compound 102]	≥ 1	–	–
> 2 mM	CC(C)(C)CC[S@](=N)(=O)CC[C@H](N)C(=O)Nc1cccnc1 (single isomer, unassigned) [Compound 103]	< 1	–	–
–	N=S(=O)(CCC(c1ccc(-c2ccccc2Cl)cc1)C(F)(F)F)CC[C@H](N)C(=O)O (single isomer, unassigned) [Compound 218]	–	≥ 1	IC50 [1, 5]: 0.02 to 2 mM
–	C[C@@](O)(CCS(=N)(=O)CC[C@H](N)C(=O)O)C(F)(F)F (single isomer, unassigned) [Compound 322]	–	< 1	IC50 [1, 5]: ≤ 0.02 mM
–	C[C@@](O)(CCS(=N)(=O)CC[C@H](N)C(=O)O)C(F)(F)F (single isomer, unassigned) [Compound 323]	–	≥ 1	IC50 [1, 5]: > 2 mM
–	C[C@](O)(CCS(=N)(=O)CC[C@H](N)C(=O)O)C(F)(F)F (single isomer, unassigned) [Compound 324]	–	< 1	IC50 [1, 5]: ≤ 0.02 mM
–	C[C@](O)(CCS(=N)(=O)CC[C@H](N)C(=O)O)C(F)(F)F (single isomer, unassigned) [Compound 325]	–	≥ 1	IC50 [1, 5]: > 2 mM
–	N=S(=O)(CC[C@H](N)C(=O)O)CC[C@H](O)C(F)(F)F (single isomer, unassigned) [Compound 326]	–	< 1	IC50 [1, 5]: ≤ 0.02 mM
–	N=S(=O)(CC[C@H](N)C(=O)O)CC[C@H](O)C(F)(F)F (single isomer, unassigned) [Compound 327]	–	≥ 1	IC50 [1, 5]: > 2 mM
–	N=S(=O)(CC[C@@H](O)C(F)(F)F)CC[C@H](N)C(=O)O (single isomer, unassigned) [Compound 328]	–	< 1	IC50 [1, 5]: ≤ 0.02 mM
–	N=S(=O)(CC[C@@H](O)C(F)(F)F)CC[C@H](N)C(=O)O (single isomer, unassigned) [Compound 329]	–	≥ 1	IC50 [1, 5]: > 2 mM
–	N=[S@](=O)(CC[C@H](N)C(=O)O)CCC(O)(c1ccccc1)C(F)(F)F (single isomer, unassigned) [Compound 345]	–	≥ 1	IC50 [1, 5]: > 2 mM
–	N=[S@@](=O)(CC[C@H](N)C(=O)O)CCC1(c2ccccc2)CCC1 (single isomer, unassigned) [Compound 392]	–	< 1	IC50 [1, 5]: ≤ 0.02 mM
–	N=S(=O)(CC[C@H](N)C(=O)O)CCC(O)(c1ccc(-c2ccc(Cl)cc2Cl)cn1)C(F)(F)F (single isomer, unassigned) [Compound 464]	–	≥ 1	IC50 [1, 5]: 0.02 to 2 mM
≤ 0.02 mM	N=S(=O)(CCc1ccc(Cl)cc1)CC[C@H](N)C(=O)O (stereo partly drawn) [Compound 1, (2S)-2-amino-4-(2-(4-chlorophenyl)ethylsulfonimidoyl)butanoic acid]	≥ 1	–	–
0.02 to 2 mM	N=S(=O)(CCc1ccccc1)CC[C@H](N)C(=O)O (stereo partly drawn) [Compound 2, (2S)-2-amino-4-(2-phenylethylsulfonimidoyl)butanoic acid]	≥ 1	–	–
0.02 to 2 mM	N=S(=O)(CCc1cccc(C(F)(F)F)c1)CC[C@H](N)C(=O)O (stereo partly drawn) [Compound 3]	≥ 1	–	–
0.02 to 2 mM	N=S(=O)(CCc1cccc(OC(F)(F)F)c1)CC[C@H](N)C(=O)O (stereo partly drawn) [Compound 4]	≥ 1	–	–
≤ 0.02 mM	N=S(=O)(CCc1ccc(F)c(F)c1)CC[C@H](N)C(=O)O (stereo partly drawn) [Compound 5]	≥ 1	–	–

IC50 [1, 3]	Compound	EC50 [2, 4] [mM]	EC50 [2, 6] [mM]	also measured
> 2 mM and 0.02 to 2 mM	N=S(=O)(CCc1ccncc1)CC[C@H](N)C(=O)O (stereo partly drawn) [Compound 6]	≥ 1	–	IC50 ([1]; human recombinant GCL 5 nM, 1 h preincubation with ATP, read-out: GCL IC50 (mM), individual values in parentheses): 2.27 mM and > 1.62 mM
> 2 mM	N=S(=O)(CC[C@H](N)C(=O)O)CCn1ccnc1 (stereo partly drawn) [Compound 7]	–	–	–
0.02 to 2 mM	N=S(=O)(CCc1cn[nH]c1)CC[C@H](N)C(=O)O (stereo partly drawn) [Compound 8]	≥ 1	–	–
0.02 to 2 mM	N=S(=O)(CCc1cnoc1)CC[C@H](N)C(=O)O (stereo partly drawn) [Compound 9]	< 1	–	–
> 2 mM	N=S(=O)(CCc1nccs1)CC[C@H](N)C(=O)O (stereo partly drawn) [Compound 10]	≥ 1	–	–
≤ 0.02 mM	Cc1ccc(CCS(=N)(=O)CC[C@H](N)C(=O)O)cc1 (stereo partly drawn) [Compound 11]	≥ 1	–	–
0.02 to 2 mM	COc1ccc(CCS(=N)(=O)CC[C@H](N)C(=O)O)cc1 (stereo partly drawn) [Compound 12]	≥ 1	–	–
≤ 0.02 mM	N=S(=O)(CCc1ccc(Cl)c(Cl)c1)CC[C@H](N)C(=O)O (stereo partly drawn) [Compound 13]	≥ 1	–	–
0.02 to 2 mM	Cc1ccccc1OCCS(=N)(=O)CC[C@H](N)C(=O)O (stereo partly drawn) [Compound 14]	–	–	–
≤ 0.02 mM	N=S(=O)(CCc1ccccc1C(F)(F)F)CC[C@H](N)C(=O)O (stereo partly drawn) [Compound 15]	≥ 1	–	EC50 ([2]; 96 h, 96 h exposure, read-out: Cell Killing EC50 (mM), individual values in parentheses): 1.2 mM; EC50 ([2]; 96 h exposure, read-out: Cell Killing EC50 (mM), individual values in parentheses): 0.97 mM
≤ 0.02 mM	N=S(=O)(CCc1cccc(F)c1F)CC[C@H](N)C(=O)O (stereo partly drawn) [Compound 16]	< 1	–	–
0.02 to 2 mM	N=S(=O)(CCc1nc(-c2ccccc2)cs1)CC[C@H](N)C(=O)O (stereo partly drawn) [Compound 17]	≥ 1	–	–
0.02 to 2 mM	N=S(=O)(CCc1cccc2c1OC(F)(F)O2)CC[C@H](N)C(=O)O (stereo partly drawn) [Compound 18]	≥ 1	–	–
≤ 0.02 mM	N=S(=O)(CCc1ccccc1Cl)CC[C@H](N)C(=O)O (stereo partly drawn) [Compound 19]	< 1	–	–
0.02 to 2 mM	COc1ccccc1CCS(=N)(=O)CC[C@H](N)C(=O)O (stereo partly drawn) [Compound 20]	≥ 1	–	–
≤ 0.02 mM	N=S(=O)(CCc1ccccc1O)CC[C@H](N)C(=O)O (stereo partly drawn) [Compound 21]	< 1	–	–
0.02 to 2 mM	N=S(=O)(CCc1ccccc1F)CC[C@H](N)C(=O)O (stereo partly drawn) [Compound 23]	≥ 1	–	–
0.02 to 2 mM	N=S(=O)(CCCc1cn[nH]c1)CC[C@H](N)C(=O)O (stereo partly drawn) [Compound 50, (2S)-4-(3-(1H-pyrazol-4-yl)propylsulfonimidoyl)-2-aminobutanoic acid]	–	–	–
0.02 to 2 mM	CC(COC(=O)c1ccccc1)OC(=O)[C@@H](N)CCS(=N)(=O)CCC(C)(C)C (stereo partly drawn) [Compound 98]	–	–	–

IC50 [1, 3]	Compound	EC50 [2, 4] [mM]	EC50 [2, 6] [mM]	also measured
–	N=S(=O)(CCC1CCO1)CC[C@H](N)C(=O)O (stereo partly drawn) [Compound 304]	–	–	IC50 [1, 5]: 0.02 to 2 mM
–	N=S(=O)(CC[C@H](N)C(=O)O)CCC(O)(c1ccc(-c2ccc(Cl)cc2)cc1)C(F)(F)F (stereo partly drawn) [Compound 431]	–	< 1	–
–	Cc1ccc(-c2ccc(C(O)(CCS(=N)(=O)CC[C@H](N)C(=O)O)C(F)(F)F)cc2)c(Cl)c1 (stereo partly drawn) [Compound 432]	–	< 1	–
–	Cn1ncc(-c2ccc(C(O)(CCS(=N)(=O)CC[C@H](N)C(=O)O)C(F)(F)F)cc2)cc1=O (stereo partly drawn) [Compound 433]	–	≥ 1	–
–	N=S(=O)(CC[C@H](N)C(=O)O)CCC(O)(c1cccc(-c2ccccc2)c1)C(F)(F)F (stereo partly drawn) [Compound 435]	–	≥ 1	–
–	Cc1ccc(-c2ccc(C(O)(CCS(=N)(=O)CC[C@H](N)C(=O)O)C(F)(F)F)cc2)c(F)c1 (stereo partly drawn) [Compound 437]	–	< 1	–
–	Cc1cc(C(O)(CCS(=N)(=O)CC[C@H](N)C(=O)O)C(F)(F)F)ccc1-c1ccc(Cl)cc1Cl (stereo partly drawn) [Compound 443]	–	< 1	–
–	N=S(=O)(CC[C@H](N)C(=O)O)CCC(O)(c1ccc(-c2ccc(Cl)cc2Cl)cn1)C(F)(F)F (stereo partly drawn) [Compound 465]	–	≥ 1	–
–	N=S(=O)(CC[C@H](N)C(=O)O)CCC(O)(c1ccc(-c2ccc(Cl)cc2Cl)cn1)C(F)(F)F (stereo partly drawn) [Compound 466]	–	< 1	–
–	N=S(=O)(CC[C@H](N)C(=O)O)CCC(O)(c1ncc(-c2ccccc2)cn1)C(F)(F)F (stereo partly drawn) [Compound 467]	–	< 1	–
–	N=S(=O)(CC[C@H](N)C(=O)O)CCC(O)(c1ncc(-c2ccc(Cl)cc2Cl)cn1)C(F)(F)F (stereo partly drawn) [Compound 468]	–	< 1	–
–	N[C@@H](CCS(=O)(=O)CCC(O)(c1ncc(-c2ccc(Cl)cc2Cl)cn1)C(F)(F)F)C(=O)O (stereo partly drawn) [Compound 470]	–	≥ 1	–
–	Cc1ccccc1-c1ccc(C(O)(CCS(=N)(=O)CC[C@H](N)C(=O)O)C(F)(F)F)nc1 (stereo partly drawn) [Compound 471]	–	< 1	–
–	Cn1cc(-c2ccc(C(O)(CCS(=N)(=O)CC[C@H](N)C(=O)O)C(F)(F)F)nc2)cn1 (stereo partly drawn) [Compound 472]	–	≥ 1	–
–	Cc1cc(Cl)ccc1-c1cnc(C(O)(CCS(=N)(=O)CC[C@H](N)C(=O)O)C(F)(F)F)nc1 (stereo partly drawn) [Compound 474]	–	< 1	–
–	N=S(=O)(CC[C@H](N)C(=O)O)CCC(O)(c1ccc(C2CCCCC2)cn1)C(F)(F)F (stereo partly drawn) [Compound 476]	–	< 1	–
–	N=S(=O)(CC[C@H](N)C(=O)O)CCC(O)(c1ccc(-c2ccco2)cn1)C(F)(F)F (stereo partly drawn) [Compound 481]	–	< 1	–
–	C#CCNC(=O)[C@@H](N)CCS(=N)(=O)CCCC (stereo partly drawn) [compound 493]	–	–	IC50 [1, 5]: > 2 mM
